The source of these data is PubChem BioAssay (NCI).

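96-well plates; 48 h exposure; 5 concentrations. Endpoints by linear interpolation between flanking doses. Not reached: highest tested concentration assigned. At the TGI there is no net growth.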 *1 amine or outer side, *2 acyl side, *3 side chain or, on linkers, in order; H or OH if unused. Where a SMILES comes first, the peptide text is derived from it. [ ]: non-standard residue; d: D form. The star is where a group is joined. X31 = CC(=O)N(C)SCC(N[*:1])C(=O)[*:2]; Cbz = O=C(OCc1ccccc1)*; Bn = c1ccc(C*)cc1; For = O=C* A value given as a limit tells only on which side of the number the result lay.

Some test systems named below: DU-145 prostate; CCRF-CEM leukemia; HOP-92 NSCLC; OVCAR-5 ovarian; NCI-H460 lung; SNB-75 CNS; U251 CNS; LOX IMVI melanoma; SF-539 CNS; SK-MEL-28 melanoma; MDA-N; HL-60(TB) leukemia; CAKI-1 renal; KM12 colon; OVCAR-8 ovarian; HCT-116 colon; RXF 393 renal; A498 renal.
Test in all cases: NCI-60 cell line screen, 48 h

As for `O=C(CN1CCCCC1)Nc1ccc2sc3ccccc3c(=O)c2n1`, the TGI in the assay with DU-145 prostate is over 100 µM; in the assay on CCRF-CEM leukemia it was over 100 µM; in the assay with HOP-92 NSCLC it was 30 µM; in the assay with OVCAR-5 ovarian, 38.9 µM; in the assay with NCI-H460 lung, 36.5 µM; in the assay on SNB-75 CNS it was 32.3 µM. Moreover, the TGI in the assay on U251 CNS was determined as 35.1 µM; in the assay with LOX IMVI melanoma, 26.4 µM; with SF-539 CNS, 31.6 µM; with SK-MEL-28 melanoma, 35.2 µM; in the assay with MDA-N, 28.7 µM; with HL-60(TB) leukemia, 68.9 µM. Also, the TGI was determined as 37.7 µM in the assay with CAKI-1 renal, 38.7 µM in the assay on KM12 colon, 47.4 µM in the assay with OVCAR-8 ovarian and 26.2 µM with HCT-116 colon.
Regarding `COc1ccc2[nH]cc(CCNC(=O)[C@H](Cc3ccccc3)NC(=O)[C@@H](NCC(F)(F)F)C(C)C)c2c1`, the TGI in the assay on DU-145 prostate was 37.7 µM; in the assay on CCRF-CEM leukemia, 7.89 µM; in the assay with HOP-92 NSCLC, 28.4 µM; in the assay with OVCAR-5 ovarian, 34.8 µM; in the assay with NCI-H460 lung, 46.3 µM; in the assay on U251 CNS, 39 µM. The TGI in the assay on LOX IMVI melanoma amounted to 37.6 µM; in the assay on SF-539 CNS it was 34.3 µM; with SK-MEL-28 melanoma, 31.8 µM; in the assay on MDA-N, 34 µM; in the assay on HL-60(TB) leukemia, 46.2 µM; with KM12 colon, 49.7 µM. Further, the TGI worked out at 54.4 µM in the assay on OVCAR-8 ovarian, 36.1 µM in the assay on RXF 393 renal and 32 µM in the assay on HCT-116 colon.
Turning to `CC(=O)N(C)SCC(NC(=O)C(Cc1ccccc1)NC(=O)OCc1ccccc1)C(=O)NC(Cc1ccccc1)C(=O)NC(Cc1cn(C=O)c2ccccc12)C(=O)NC(CCCCNC(=O)OCc1ccccc1)C(=O)NC(C(=O)NC(CSN(C)C(C)=O)C(=O)NC(C(N)=O)C(C)OCc1ccccc1)C(C)OCc1ccccc1` (stereo not given) (Cbz-F[X31]FW(For)K(Cbz)T(Bn)[X31]T(Bn)-NH2; configuration not given here), the TGI with DU-145 prostate is over 100 µM; in the assay on CCRF-CEM leukemia it was over 100 µM; with HOP-92 NSCLC, 56.6 µM; with OVCAR-5 ovarian, over 100 µM; in the assay with NCI-H460 lung, over 100 µM; with SNB-75 CNS, 36.9 µM. Moreover, the TGI in the assay with U251 CNS, with LOX IMVI melanoma, in the assay with SF-539 CNS, in the assay on SK-MEL-28 melanoma, in the assay with MDA-N and in the assay on HL-60(TB) leukemia was over 100 µM each time. For the same molecule, the TGI in the assay with KM12 colon was over 100 µM; in the assay with OVCAR-8 ovarian, over 100 µM; with RXF 393 renal, 41.9 µM; with HCT-116 colon, over 100 µM.
For `O=c1c2c(oc3ccccc13)-c1ccccc1OC2`, the TGI was over 100 µM with DU-145 prostate; over 100 µM in the assay on CCRF-CEM leukemia; over 100 µM in the assay with OVCAR-5 ovarian; 50.7 µM in the assay on SNB-75 CNS; over 100 µM with U251 CNS; over 100 µM in the assay with LOX IMVI melanoma. Further, the TGI in the assay with SF-539 CNS is 72.7 µM; with MDA-N, over 100 µM; with CAKI-1 renal, over 100 µM; with KM12 colon, over 100 µM; with OVCAR-8 ovarian it was over 100 µM; with HCT-116 colon, over 100 µM.
For the molecule `C(=C\c1cccs1)/c1cccc(/C=C/c2cccs2)n1`, the TGI with DU-145 prostate was over 100 µM; with CCRF-CEM leukemia, over 100 µM; with HOP-92 NSCLC it was over 100 µM; with OVCAR-5 ovarian, over 100 µM; in the assay with NCI-H460 lung it was over 100 µM; with SNB-75 CNS, 79.4 µM. Further, the TGI in the assay on U251 CNS, in the assay with LOX IMVI melanoma, in the assay with SF-539 CNS, in the assay with SK-MEL-28 melanoma, in the assay on MDA-N and with HL-60(TB) leukemia was over 100 µM throughout. For the same molecule, the TGI in the assay on CAKI-1 renal, with KM12 colon, in the assay with OVCAR-8 ovarian, with RXF 393 renal and in the assay with HCT-116 colon was over 100 µM throughout.
Turning to `CCSc1[nH]c(NC(=S)NC(=O)c2ccccc2Cl)c(C(N)=O)c1C(N)=O`, the TGI in the assay with DU-145 prostate, in the assay with CCRF-CEM leukemia, in the assay on HOP-92 NSCLC, in the assay on SNB-75 CNS, in the assay on LOX IMVI melanoma and in the assay with SK-MEL-28 melanoma was over 10 µM in each case. The TGI with MDA-N, with HL-60(TB) leukemia, in the assay on CAKI-1 renal, in the assay with KM12 colon, in the assay with OVCAR-8 ovarian and with RXF 393 renal was over 10 µM in each case.
For `O=C1/C(=C/c2cccc(Br)c2)CCc2ccccc21`, the TGI stood at 30.9 µM with DU-145 prostate; 13.4 µM with CCRF-CEM leukemia; 28.2 µM in the assay with HOP-92 NSCLC; 28.3 µM with OVCAR-5 ovarian; 28.5 µM in the assay with NCI-H460 lung; 30 µM in the assay on SNB-75 CNS. Besides, the TGI was found to be 28 µM with U251 CNS; 28.5 µM with LOX IMVI melanoma; 31.4 µM with SF-539 CNS; 33.8 µM with SK-MEL-28 melanoma; 24.5 µM in the assay on MDA-N; 28.3 µM with HL-60(TB) leukemia. Further, the TGI in the assay with CAKI-1 renal came to 30.3 µM; with KM12 colon it was 20.7 µM; in the assay with OVCAR-8 ovarian it was 36.1 µM; in the assay on HCT-116 colon, 19.9 µM.
`CC(=O)C(=C(c1ccccc1)c1ccccc1)c1ccccc1`: the TGI in the assay on DU-145 prostate, in the assay on CCRF-CEM leukemia, in the assay with HOP-92 NSCLC, in the assay on OVCAR-5 ovarian, in the assay on NCI-H460 lung and with SNB-75 CNS was over 100 µM each time. Moreover, the TGI in the assay with U251 CNS, in the assay on LOX IMVI melanoma, with SF-539 CNS, in the assay on SK-MEL-28 melanoma, in the assay on MDA-N and with HL-60(TB) leukemia was over 100 µM in each case. The TGI with KM12 colon, in the assay with OVCAR-8 ovarian, in the assay on RXF 393 renal and in the assay with HCT-116 colon was over 100 µM in each case.
Regarding `Cn1c(=O)c(Br)c(C=O)n(CCO[N+](=O)[O-])c1=O`, the TGI was over 100 µM in the assay on DU-145 prostate; 5.25 µM with CCRF-CEM leukemia; 6.85 µM in the assay on HOP-92 NSCLC; 13.8 µM in the assay with OVCAR-5 ovarian; 31.5 µM in the assay on NCI-H460 lung; 27 µM in the assay with SNB-75 CNS. The TGI in the assay on U251 CNS is 9.77 µM; with LOX IMVI melanoma it was 5.51 µM; in the assay with SF-539 CNS, 32.8 µM; in the assay on SK-MEL-28 melanoma, 4.73 µM; with MDA-N, 17.3 µM; in the assay with HL-60(TB) leukemia, 4.46 µM. For the same molecule, the values for the TGI in the assay with OVCAR-8 ovarian, with A498 renal and with HCT-116 colon were 7.79 µM, 33.4 µM and 16.1 µM, respectively.
